What all share (test): NCI tumour cell line growth inhibition, 48 h
Test [1] has as its system 786-0 renal.
In test [2] the test system is BT-549 breast.
For test [3], the system named is HT29 colon.
Test [4] relates to M14 melanoma.
For test [5], the system named is MDA-MB-231 breast.
For test [6], the system named is NCI-H23 lung.
Test [7] deals with NCI-H460 lung.
In test [8] the test system is OVCAR-3 ovarian.
Test [9] relates to PC-3 prostate.
For test [10], the system named is RXF 393 renal.
Test [11] has as its system SF-539 CNS.
Test [12] deals with SK-MEL-28 melanoma.
In test [13] the test system is SK-OV-3 ovarian.
Test [14] concerns SN12C renal.
Test [15] concerns T-47D breast.
In test [16] the test system is UACC-257 melanoma.
Test [17] concerns UACC-62 melanoma.
For test [18], the system named is CAKI-1 renal.
Test [19] concerns OVCAR-4 ovarian.
The subject of test [20] is HCC-2998 colon.

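Protocol summary: plate cells (96-well), add compound at 5 concentrations, incubate 48 h, interpolate endpoints linearly. TGI is the concentration that stops growth completely.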 Where a SMILES comes first, the peptide text is derived from it. The star is where a group is joined. OSu = O=C1CCC(=O)N1O*

On to `C=CCCC(=O)C(=[N+]=[N-])C(=O)CCC(=O)c1ccccc1`, for which the TGI in [1], in test [2], in [3], in test [4], in test [5] and in [6] was above 10 µM throughout. Moreover, the TGI in test [7], in test [8], in [9], in test [10], in test [11] and in test [12] was above 10 µM throughout. Moreover, the TGI in [13], in test [14], in test [15], in test [16] and in [17] was above 10 µM throughout.

In the case of `CC(=O)O[C@H]1C(=O)[C@@]2(C)[C@H]([C@H](OC(=O)c3ccccc3)[C@]3(O)C[C@H](OC(=O)[C@H](O)[C@@H](NC(=O)c4ccc(N(C)C)cc4)c4ccccc4)C(C)=C1C3(C)C)[C@]1(OC(C)=O)CO[C@@H]1C[C@@H]2O`, the TGI in [1], in test [2], in test [18], in test [4], in test [5] and in test [6] was above 50 µM in each case. The TGI is 0.0063 µM in test [8]; above 50 µM in test [19]; above 50 µM in test [9]; 0.226 µM in test [10]; above 50 µM in test [12]; above 50 µM in [13]. Moreover, the TGI in test [14], in test [15] and in test [17] was above 50 µM in each case.

As to `Cc1ccc(S(=O)(=O)NC(=O)NC(CCC(N)=O)C(=O)O)cc1` (stereo not given), the TGI in test [1], in test [2], in test [3], in test [4], in test [5] and in test [6] was above 100 µM each time. Besides, the TGI in test [7], in test [19], in test [9], in test [10], in [11] and in [12] was above 100 µM throughout. In addition, the TGI in test [13], in [14], in test [15], in test [16] and in [17] was above 100 µM throughout.

As for `NS(=O)(=O)c1nnc(NS(=O)(=O)c2ccc([N+](=O)[O-])cc2)s1`, the TGI in [1], in [2], in [18], in test [20], in test [3] and in test [4] was above 100 µM throughout. The TGI in test [5], in [6], in test [7], in [8], in [19] and in test [9] was above 100 µM in each case. The TGI in test [10], in test [11], in [12], in test [13], in test [15] and in test [17] was above 100 µM in each case.

As to `COc1ccc2oc(C(=O)N3CC(CCl)c4ccc(N)cc43)cc2c1` (stereo not given), the TGI is 0.277 µM in test [1]; 1.85 µM in test [2]; 0.648 µM in test [18]; 1.19 µM in test [20]; 1.44 µM in [3]; above 26.7 µM in test [5]. Also, the TGI in test [6] is 1.1 µM; in [7], 1.74 µM; in test [8], above 100 µM; in test [9] it was above 21.3 µM; in [10] it was 0.532 µM; in [11], 5.66 µM. In addition, the TGI in test [12] was 2.55 µM; in test [13] it was 8.78 µM; in test [14], 8.5 µM; in test [15], 3.87 µM; in [16], 6.57 µM; in [17] it was 0.496 µM.

On to `O=C1C(Cl)=C(NCCF)C(=O)c2ncccc21`, for which the TGI worked out at 3.21 µM in test [1]; 2.99 µM in [2]; 2.71 µM in [20]; 7.29 µM in test [3]; 3.15 µM in test [4]; 4 µM in test [5]. Moreover, the TGI in test [6] amounted to 3.51 µM; in test [7], 3.73 µM; in [8], 5.45 µM; in test [9], 3.09 µM; in test [10] it was 3.24 µM; in test [11] it was 3.23 µM. The TGI in [12] stood at 3.41 µM; in [13] it was 3.74 µM; in test [14], 3.35 µM; in test [15], 4.25 µM; in test [16], 3.03 µM; in [17], 2.68 µM.

Regarding `Cc1cc(C)nc(NS(=O)(=O)c2ccc(NC(=O)c3cc([N+](=O)[O-])cc([N+](=O)[O-])c3)cc2)n1`, the TGI in test [1], in test [2], in test [18], in test [3], in test [4] and in test [5] was above 100 µM each time. Moreover, the TGI in test [6] was above 100 µM; in [7] it was above 100 µM; in test [8], 98.4 µM; in test [19], above 100 µM; in test [9] it was above 100 µM; in test [10], above 100 µM. Moreover, the TGI in test [11], in test [12], in [13], in test [14], in test [15] and in [16] was above 100 µM in each case. Also, the TGI in [17] was above 100 µM.

Turning to `COC(=O)C1(O)C(c2ccccc2)NC2(C)CCCC21` (stereo not given), the TGI in [1], in [2], in test [18], in test [4], in [5] and in test [6] was above 100 µM each time. Also, the TGI in test [19], in test [9], in [10], in test [11], in [12] and in test [13] was above 100 µM in each case. Also, the TGI in test [14], in test [15], in [16] and in [17] was above 100 µM in each case.

On to `Cc1ccc(SCC(OCn2cnc3c(Cl)nc(N)nc32)[C@H](C)F)cc1` (stereo not given in full), for which the TGI in [1], in test [2], in [18], in test [20], in [3] and in test [4] was above 100 µM in each case. The TGI in [5], in test [6], in [7], in test [8], in test [19] and in test [9] was above 100 µM throughout. Further, the TGI in test [11], in [12], in [13], in test [14], in [15] and in test [16] was above 100 µM each time. Further, the TGI in [17] was above 100 µM.

Take `O=c1c2c3c(sc2nc2n1N=CN(c1ccc(F)cc1)C2)CCCC3`: the TGI in [1], in [2], in test [18], in test [20], in [3] and in test [4] was above 100 µM each time. Also, the TGI in test [5], in [6], in test [7], in test [8], in [19] and in [9] was above 100 µM each time. In addition, the TGI in test [10], in [12], in test [13], in test [14], in test [15] and in test [16] was above 100 µM throughout. Also, the TGI in test [17] is above 100 µM.

In the case of `C#C[C@]1(O)CC[C@H]2[C@@H]3CCC4=C/C(=N/OC(=O)c5cccc6c(=O)c7ccccc7[nH]c56)CCC4[C@H]3CC[C@@]21CC` (stereo not given in full), the TGI in test [1] is above 39.6 µM; in test [2], 87.8 µM; in test [18] it was above 85 µM; in [20], above 90.9 µM; in test [3], above 50.7 µM; in test [4], above 100 µM. Also, the TGI in [5] is above 100 µM; in test [6], above 100 µM; in test [7] it was above 100 µM; in test [8], above 61.1 µM; in [19], above 100 µM; in [9], above 96 µM. The TGI is 12.6 µM in [10]; above 100 µM in test [12]; above 100 µM in test [13]; above 100 µM in [14]; above 75.9 µM in test [15]; above 88.1 µM in [16]. Besides, the TGI in test [17] was above 71.9 µM.

Consider `CC(=O)n1nc(-c2ccc3ccccc3c2)nc1C`, for which the TGI in test [1], in test [2], in test [18], in test [20], in test [3] and in test [4] was above 100 µM each time. For the same molecule, the TGI in test [5], in [7], in test [8], in test [19], in test [9] and in test [10] was above 100 µM in each case. Moreover, the TGI in test [11], in test [13], in test [14], in test [15], in test [16] and in test [17] was above 100 µM in each case.

With `NCCCCC(NC(=O)C(N)Cc1ccc(O)cc1)C(=O)NC(Cc1ccc(O)cc1)C(=O)NC(CCCCN)C(=O)ON1C(=O)CCC1=O` (stereo not given) (H-YKYK-OSu; configuration not given here), the TGI in test [1], in test [2], in [20], in test [3], in [4] and in test [5] was above 100 µM each time. The TGI in test [6], in test [7], in [9], in test [10], in test [12] and in [14] was above 100 µM each time. Besides, the TGI in test [15], in [16] and in [17] was above 100 µM throughout.

With `COc1ccc(CCN2C(=O)CC34C=CC(CC3C2=O)O4)cc1OC` (stereo not given), the TGI in [1], in test [2], in test [18], in test [20], in [3] and in test [4] was above 100 µM in each case. Also, the TGI in test [5], in test [6], in test [8], in test [19], in [9] and in [11] was above 100 µM each time. Moreover, the TGI in [12], in [13], in test [14], in [15], in test [16] and in test [17] was above 100 µM in each case.

With `O=C(NC1(C(=O)O)CCCC1)c1ccccc1`, the TGI in test [1], in [2], in [18], in test [20], in test [3] and in test [4] was above 100 µM in each case. Moreover, the TGI in test [5], in [6], in test [7], in test [8], in [9] and in test [10] was above 100 µM each time. The TGI in test [11], in [12], in test [13], in [14], in [15] and in test [16] was above 100 µM throughout. The molecule further had a TGI in test [17] above 100 µM.

The record behind these values is PubChem BioAssay (NCI).
